{
  "source": "paper PMC9006992",
  "about": "(Frontiers in Pharmacology, 2022)",
  "key": {"[1]": {"assay": "Metabolite profiling in human plasma, urine and feces pools (HPLC-AMS)", "assay_type": "in vivo", "settings": "for Feces % of dose: based on geometric mean of total cumulative excretion in feces; for Urine % of dose: based on geometric mean of total cumulative excretion in urine", "protocol": "For each subject, plasma samples were pooled based on the Hamilton pooling scheme ([Hamilton et al., 1981]) with samples collected within 72 h. Thereafter, a single cross-subject plasma pool was prepared by using a constant proportion of each individual Hamilton pool. Proportional pooling was applied for urine and homogenized feces samples. […] A single cross-subject pool for both excreta was prepared by taking a sample representing 10% of each individual pool to obtain a representative pool of at least 95% of the total excreted ^14C across all subjects.\nPooled plasma and feces samples were further purified by liquid-liquid extraction prior to HPLC analysis. The pooled plasma sample (4,000 μl) was extracted with 1200 μl acetonitrile:methanol (80:20, v/v) (Thermo Fisher Scientific, Waltham, MA, United States). After mixing for 1 min, the sample was centrifuged for 10 min at 3,750 rpm and 10°C […]. Thereafter, the supernatant was collected, dried, and aliquoted for analysis. These extraction steps were repeated two additional times with the remaining pellet to obtain a high extraction recovery. The homogenized feces sample (200 mg) was extracted by addition of 800 μl acetonitrile, followed by centrifugation for 5 min at 3,750 rpm and 4°C. The supernatant was collected and dried with nitrogen at 40°C. The remaining pellet was extracted by addition of 800 μl acetonitrile:water (1:1, v/v) followed by a drying process with nitrogen. The dried extract was reconstituted with acetonitrile:mobile phase A (see Analytical Method for Metabolite Profiling) (1:9, v/v) and vortexed for 5 min. […] Urine samples were directly used for analysis.\nMetabolite profiles were generated by using HPLC together with an AMS detector. The plasma extract (120 μl), the feces extract (10 μl), and urine (100 μl) were injected onto the HPLC (Agilent 1290, Agilent Technologies, Santa Clara, CA, United States) equipped with a binary pump G4220A (Agilent Technologies), an autosampler G4226A (Agilent Technologies), a column compartment G1316C (Agilent Technologies), and a fraction collector G1364C (Agilent Technologies). […] Mobile phases consisted of 20 mM ammonium formate adjusted to pH 9.5 with ammonium hydroxide (phase A) and a 7:2:1 (v/v/v) mixture of acetonitrile, methanol, and mobile phase A (phase B). […] Following HPLC analysis, pools of HPLC fractions were prepared by taking equivalent portions of consecutive individual fractions for analysis with AMS (SSAMS-250, National Electrostatics Corp., Middleton, WI, United States). The amounts of ^14C in each fraction and fraction pool were summed and compared to the solution injected onto the HPLC for the determination of profile recovery."}, "[2]": {"tested_on": "carboxylesterases (i.e., CES1b, CES1c, and CES2)", "assay": "Exploratory in vitro studies on enzymes catalyzing formation of M23", "assay_type": "in vitro ADME", "settings": "Idorsia data on file"}, "[3]": {"tested_on": "human liver microsomes (HLM)", "assay": "Incubation with HLMs and CYP-specific inhibitors", "assay_type": "in vitro ADME", "settings": "10 μM 14C-ACT-1004-1239, 1 μM ketoconazole (CYP3A4 inhibitor)"}, "[4]": {"tested_on": "CYP2C19", "assay": "Incubation with recombinant human CYP2C19", "assay_type": "in vitro ADME", "settings": "intersystem extrapolation scaling approach; 100 pmol/ml CYP, 10 μM, 60 min", "protocol": "(§1) ^14C-ACT-1004-1239 was incubated for 60 min with 100 pmol/ml of the respective recombinant CYP (CYP1A1, CYP1A2, CYP2B6, CYP2C8, CYP2C9, CYP2C19, CYP2D6, or CYP3A4) in 100 mM phosphate buffer (pH 7.4) at a final ^14C-ACT-1004-1239 concentration of 10 μM. The incubation was initiated by addition of the pre-warmed NADPH-regenerating system and terminated by the addition of one volume equivalent acetonitrile. The NADPH-regenerating system was prepared as described in Incubation With HLMs and CYP-Specific Inhibitors. The organic solvent concentration in all incubations was kept at 0.5% (v/v). Control incubations in the absence of the NADPH-regenerating system or CYP, as well as incubations with control bactosomes, were performed in parallel under otherwise identical conditions. The samples were centrifuged for 10 min at 20,800 g and 10°C to obtain the supernatant which was used for HPLC analysis (as described in Analytical Method for Metabolite Profiling). The resulting data were further used to determine their contribution to the metabolic clearance in vitro by applying the intersystem extrapolation scaling approach as described by [Chen et al. (2011)]. […]"}, "[5]": {"tested_on": "CYP2C8", "assay": "Incubation with recombinant human CYP2C8", "assay_type": "in vitro ADME", "settings": "intersystem extrapolation scaling approach; 100 pmol/ml CYP, 10 μM, 60 min", "protocol": "as §1"}, "[6]": {"assay": "Pharmacokinetics of total 14C-radioactivity in human plasma (microtracer, AMS)", "assay_type": "in vivo", "settings": "single oral 9.2 μg 14C-ACT-1004-1239 + 100 mg ACT-1004-1239"}, "[7]": {"settings": "ref Huynh et al., cited from earlier work"}, "[8]": {"tested_on": "CYP3A4", "assay": "Incubation with recombinant human CYP3A4", "assay_type": "in vitro ADME", "settings": "intersystem extrapolation scaling approach; 100 pmol/ml CYP, 10 μM, 60 min", "protocol": "as §1"}, "[9]": {"design": "method as in Richard-Bildstein et al., 2020", "settings": "ref Richard-Bildstein et al., 2020; cited from earlier work"}, "[10]": {"assay": "Quantification of M38 in pooled human plasma using a synthesized reference", "assay_type": "in vivo", "settings": "non-radiolabelled metabolite"}},
  "data": [
    {"smiles": "O=C(N[C@H]1CCNC[C@@H]1C(=O)NC1(c2ncccn2)CC1)c1cc(-c2ccc(F)cc2F)on1", "note": "[M1]", "values": [
      {"measurement": "Urine + feces % of dose", "setting": "[1]; 14C-radioactive dose excreted", "value": 25.1, "unit": "%"},
      {"measurement": "Feces % of dose", "setting": "[1]", "value": 23.7, "unit": "%"},
      {"measurement": "Urine % of dose", "setting": "[1]", "value": 1.4, "unit": "%"}
    ]},
    {"smiles": "O=C(O)c1cc(-c2ccc(F)cc2F)on1", "note": "[M23]", "values": [
      {"measurement": "involvement of carboxylesterases in formation of M23", "setting": "[2]", "value": "excluded the involvement of carboxylesterases"},
      {"measurement": "Plasma % in sample (relative abundance, % of total radioactivity)", "setting": "[1]; cross-subject plasma pool, samples within 72 h", "value": 21.1, "unit": "%"}
    ]},
    {"smiles": "CC(=O)N1CCN(c2ccc(OCC3COC(Cn4ccnc4)(c4ccc(Cl)cc4Cl)O3)cc2)CC1", "note": "(stereo not shown) [ketoconazole]", "values": [
      {"measurement": "formation of M1 in presence of inhibitor", "setting": "[3]", "value": "completely abolished"}
    ]},
    {"smiles": "O=C(N[C@H]1CCN(CC2CC2)C[C@@H]1C(=O)NC1(c2ncccn2)CC1)c1cc(-c2ccc(F)cc2F)on1", "note": "[ACT-1004-1239]", "values": [
      {"measurement": "contribution of CYP2C19 to M1 formation", "setting": "[4]", "value": 5.2, "unit": "%"},
      {"measurement": "Feces % of dose", "setting": "[1]", "value": 5.2, "unit": "%"},
      {"measurement": "Urine % of dose", "setting": "[1]", "value": 10.1, "unit": "%"},
      {"measurement": "contribution of CYP2C8 to M1 formation", "setting": "[5]", "value": 1.2, "unit": "%"},
      {"measurement": "plasma concentration of 14C-drug-related material after 72 h post-dose", "setting": "[6]", "value": "below the limit of quantification"},
      {"measurement": "safety and tolerability profile", "setting": "[7]; healthy humans, dose range 1–200 mg, single and multiple dose, 2021b, Huynh et al., 2021a", "value": "favorable safety and tolerability profiles"},
      {"measurement": "time to reach maximum plasma concentration [tmax]", "setting": "[7]; male and female subjects, oral 1-200 mg, 2021a, Huynh et al., 2021b", "value": "1 to 3", "unit": "h"},
      {"measurement": "accumulation at steady state", "setting": "[7]; multiple-dose, 2021a", "value": "almost no accumulation"},
      {"measurement": "time to steady-state conditions of systemic exposure", "setting": "[7]; multiple-dose, 2021a", "value": "≤ 3", "unit": "days"},
      {"measurement": "absolute bioavailability", "setting": "[7]; 2021b", "value": 53, "unit": "%"},
      {"measurement": "effect of food on the PK", "setting": "[7]; 2021b", "value": "no relevant effect"},
      {"measurement": "volume of distribution", "setting": "[7]; 2021b", "value": 183, "unit": "L"},
      {"measurement": "contribution of CYP3A4 to total M1 formation (total turnover in vitro)", "setting": "[8]", "value": 94, "unit": "%"},
      {"measurement": "absorption in rats", "setting": "[9]", "value": "rapidly absorbed"},
      {"measurement": "volume of distribution in rats", "setting": "[9]", "value": "in excess of total body water"}
    ]},
    {"smiles": "N[C@H]1CCN(CC2CC2)C[C@@H]1C(=O)NC1(c2ncccn2)CC1", "note": "[M38]", "values": [
      {"measurement": "presence in pooled human plasma", "setting": "[10]", "value": "negligible"}
    ]}
  ]
}
